Reference: publication PMC3362725, “An open-label, phase 1 study evaluating safety, tolerability, and pharmacokinetics of linifanib (ABT-869) in Japanese patients with solid tumors” (Cancer Chemotherapy and Pharmacology, 2012)

Test: Safety and tolerability: adverse events per CTCAE v3, dose-limiting toxicity, phase 1 study
Format: in vivo, human (Japanese patients with solid tumors)
Method: A standard 3 + 3 design determined the dose level assignment. Patients were assigned to one of four sequential dose cohorts of once-a-day dose regimen of oral linifanib: 0.05, 0.10, 0.20, or 0.25 mg/kg, administered in the morning. […] Dose-limiting toxicity (DLT) was defined as Grade 4 neutropenia lasting >7 days, Grade 4 thrombocytopenia or decreased hemoglobin, Grade 3 or greater thrombocytopenia (if blood transfusion was required), febrile neutropenia, non-hematological toxicity except for manageable nausea, vomiting, anorexia, diarrhea, constipation or electrolyte abnormality, or a toxicity that required suspension of study drug for >7 days.
Patients self-administered linifanib once daily, on a 21-day cycle after fasting, and treatment continued until disease progression or intolerable toxicity. […] The initial oral dose, 2.5–25.0 mg in increments of 2.5 mg, was determined by the patients’ weights. […] The dose was reduced by 5.0 mg for patients ≥86 kg in the 0.10 mg/kg cohort, for patients in the 0.20 mg/kg cohort who were ≥81 kg at the first reduction and 61–80 and ≥96 kg at the 2nd reduction, and for patients in the 0.25 mg/kg cohort who were ≥66 kg at the first reduction and ≥86 kg at the second reduction. Patients were discontinued if they required dose reduction, specified by cohort: Any reduction (0.05 mg/kg cohort); >1 reduction (0.10 mg/kg cohort, and patients ≤31 kg in the 0.20 mg/kg cohort with an initial 5 mg dose); >2 reductions (0.25 mg/kg cohort, and patients ≥32 kg in the 0.20 mg/kg cohort with an initial ≥7.5 mg dose).
Baseline evaluations included physical examination, body weight, vital signs, 12-lead electrocardiogram, ECOG PS assessment, pregnancy test, laboratory tests, and multiple-gated acquisition scan/echocardiogram. Tumor response and/or disease progression was assessed by computerized tomography (CT) scan or magnetic resonance imaging (MRI) per RECIST [20] at screening and on Day (D) 1 of every second cycle prior to the subsequent treatment period, until tumor progression or until final visit. Complete response and partial response (PR) were defined according to RECIST [20]; objective response rate (ORR) was defined as the proportion of patients with best response of PR or CR among the study population. Safety assessments included laboratory test results and adverse events (AEs), which were graded according to CTCAE v3 [18] and coded by medical dictionary of regulatory activities (MedDRA) 1.0.

## Cc1ccc(F)c(NC(=O)Nc2ccc(-c3cccc4[nH]nc(N)c34)cc2)c1 [linifanib, N-(4-(3-amino-1H-indazol-4-yl)phenyl)-N’-(2-fluoro-5-methylphenyl)urea]
0.05 mg/kg dose
  Grade 3 linifanib-related AEs: no Grade 3 linifanib-related AEs
0.05 mg/kg n = 3, G1
  ALT increased, linifanib-related AE, patients: 1
  AST increased, linifanib-related AE, patients: 1
  Anorexia, linifanib-related AE, patients: 1
  Blood ALKP increased, linifanib-related AE, patients: 1
  Blood TG increased, linifanib-related AE, patients: 1
  Blood cholesterol increased, linifanib-related AE, patients: 2
  Blood urine present, linifanib-related AE, patients: 1
  Diarrhea, linifanib-related AE, patients: 1
  Hypertension, linifanib-related AE, patients: 1
  Neutropenia, linifanib-related AE, patients: 2
  Rash, linifanib-related AE, patients: 1
  Weight decreased, linifanib-related AE, patients: 2
0.05 mg/kg n = 3, G2
  Blood ALKP increased, linifanib-related AE, patients: 1
  Hypertension, linifanib-related AE, patients: 2
0.10 mg/kg cohort, one patient
  dose-limiting toxicity observed: Grade 3 ALT increase
0.10 mg/kg dose
  Grade 3 linifanib-related AEs: three
0.10 mg/kg n = 6, G1
  ALT increased, linifanib-related AE, patients: 2
  AST increased, linifanib-related AE, patients: 4
  Anorexia, linifanib-related AE, patients: 2
  Blood ALKP increased, linifanib-related AE, patients: 1
  Blood TG increased, linifanib-related AE, patients: 3
  Blood TSH increased, linifanib-related AE, patients: 3
  Blood cholesterol increased, linifanib-related AE, patients: 3
  Blood urine present, linifanib-related AE, patients: 2
  Diarrhea, linifanib-related AE, patients: 3
  Fatigue, linifanib-related AE, patients: 1
  GGT increased, linifanib-related AE, patients: 3
  Leukopenia, linifanib-related AE, patients: 2
  Neutropenia, linifanib-related AE, patients: 1
  Proteinuria, linifanib-related AE, patients: 1
  Rash, linifanib-related AE, patients: 3
  Thrombocytopenia, linifanib-related AE, patients: 1
  Weight decreased, linifanib-related AE, patients: 2
0.10 mg/kg n = 6, G2
  Blood TG increased, linifanib-related AE, patients: 1
  Fatigue, linifanib-related AE, patients: 1
  GGT increased, linifanib-related AE, patients: 1
  Hypertension, linifanib-related AE, patients: 5
  Leukopenia, linifanib-related AE, patients: 1
  Palmar-plantar erythrodysaesthesia, linifanib-related AE, patients: 3
  Proteinuria, linifanib-related AE, patients: 2
  Thrombocytopenia, linifanib-related AE, patients: 1
  Weight decreased, linifanib-related AE, patients: 1
0.10 mg/kg n = 6, G3
  Neutropenia, linifanib-related AE, patients: 1
  Proteinuria, linifanib-related AE, patients: 1
0.20 mg/kg n = 3, G1
  ALT increased, linifanib-related AE, patients: 2
  AST increased, linifanib-related AE, patients: 2
  Anorexia, linifanib-related AE, patients: 1
  Blood ALKP increased, linifanib-related AE, patients: 1
  Blood TG increased, linifanib-related AE, patients: 3
  Blood TSH increased, linifanib-related AE, patients: 3
  Blood cholesterol increased, linifanib-related AE, patients: 2
  Blood urine present, linifanib-related AE, patients: 2
  Diarrhea, linifanib-related AE, patients: 1
  Fatigue, linifanib-related AE, patients: 1
  GGT increased, linifanib-related AE, patients: 1
  Leukopenia, linifanib-related AE, patients: 2
  Rash, linifanib-related AE, patients: 1
  T-wave abnormality, linifanib-related AE, patients: 1
  Weight decreased, linifanib-related AE, patients: 1
0.20 mg/kg n = 3, G2
  Anorexia, linifanib-related AE, patients: 1
  Blood cholesterol increased, linifanib-related AE, patients: 1
  Fatigue, linifanib-related AE, patients: 1
  Hypertension, linifanib-related AE, patients: 2
